Data: patent publication US12298306B2, “Marker for identifying patients with gliobastoma who respond positively to the drug regorafenib” (ISTITUTO ONCOLOGICO VENETO IOV-IRCCS, priority 2018, dated 2025)

Legend:
[1] = test system: glioblastoma; assay: REGOMA randomized, controlled, phase II clinical trial, survival by pACC Ser79 marker status; assay type: in vivo, patients
Procedure: Once all samples of the REGOMA trial which are available for the translational study (Table 1) have been stained, the biostatistics and clinical trial team of IOV (Mr. De Salvo—doctor) performed a statistical analysis to evaluate the possible prognostic or predictive meaning of the response of pACC^Ser79.
To evaluate the prognostic role of pACC^Ser79, an analysis was carried out according to the Cox model, considering pACC^Ser79 as an independent variable and dividing the patient samples into positive and negative (as reported above), and survival, being both free from disease progression and as a whole, as a dependent variable.
To evaluate the predictive role of pACC^Ser79, the variable of the treatment received by the patient was added to the Cox model (in particular, according to a randomized assignment, the patient received Regorafenib or Lomustine) in addition to the interaction factor of received treatment*status of the marker pACC^Ser79 (positive/negative).

[2] = test system: glioblastoma at diagnosis; settings: in association with standard treatment; cited from earlier work

Row | Compound | benefit from treatment in patients with neoplastic tissue positive to pACC Ser79 ([1]; Cox model with treatment*marker interaction, comparator Lomustine) | survival after second-line treatment in patients whose tumor samples express pACC Ser79 ([1]; pACC Ser79 positive tumor samples, second-line treatment, REGOMA) | PFS [2] | quality of life [2] | survival (OS) [2]
1 | CNC(=O)c1cc(Oc2ccc(NC(=O)Nc3ccc(Cl)c(C(F)(F)F)c3)c(F)c2)ccn1 [Regorafenib] | most benefited | longer survival | – | – | –
2 | bevacizumab | – | – | improved | improved | no significant survival advantages
